Measured values reported in patent publication US11407811B2, “Fusion protein, preparation method therefor and use thereof” (JIANGSU RONGTAI BIOTECH CO., LTD., priority 2017, dated 2022).

Key:
mouse spleen lymphocytes = assay: Proliferation of mouse spleen lymphocytes (ConA, MTT); type: cell-based; settings: dose 20 μg/mL
Procedure: Tris-NH4Cl was used to break the red blood cells, which were allowed to stand in an ice water bath for 4 min and centrifuged (1000 rpm, 5 min), the supernatant was discarded, and the cells were washed twice with sterile PBS.
The cells were statically cultured in a cell incubator at 37° C. for 48 h. After the completion of the culture, 20 μL of MTT was added to each well, and the culture was continued for 4 h. Finally, all the solutions in each well were discarded, 100 μL of DMSO was added to each well, and the mixture was shaken and detected by a microplate reader for OD value at 570 nm. 5 parallels were preformed for per well.

[1] = system: IL-1β production by mouse peritoneal macrophages; assay: IL-1β production by mouse peritoneal macrophages (ELISA); type: cell-based; settings: dose 20 μg/mL
Procedure: (1) IL-1β production: mice were intraperitoneally injected with 1 mL of broth medium containing 6% starch, and three days later, the mouse peritoneal macrophages were aseptically taken, washed twice with a 1640 medium, and the cell concentration was adjusted to 2×10^6 cells/mL, inoculated into a 24-well culture plate at 1 mL/well, incubated for 3 h in a cell incubator, and shaken once every 30 min, so that the cells were allowed to adhere sufficiently. Then, the cells were washed twice with a culture liquid to remove un-adhered cells. […] The supernatant was taken as a sample for testing activity of IL-1β.
(2) Determination of IL-1β content: the detection was performed by using mouse IL-1β enzyme-linked immunosorbent assay kit from R&D company. According to the instructions of the kit, the procedures were as follows: the reaction well for the test samples and different concentrations of standards were sealed with sealing tapes, respectively, incubation was performed at 37° C. for 90 min; the plate was washed four times; a biotinylated antibody working solution (100 μL/well) was added, the reaction well was sealed with sealing tapes, and incubation was performed at 37° C. for 60 min; the plate was washed four times; an enzyme conjugate working solution (100 μL/well) was added, the reaction well was sealed with sealing tapes, incubation was performed at 37° C. for 30 min; the plate was washed four times; a developer (100 μL/well) was added, incubation was performed at 37° C. for 10 to 20 min, a stop solution (100 μL/well) was added and mixed and the OD450 value was measured.

[2] = system: peritoneal capillary permeability in mice; assay: Peritoneal capillary permeability in mice (HAc, Evans blue); type: in vivo; settings: mice, dose 10 mg/kg
Procedure: The drug was administered once by injection (EDSM needed to be administered twice a day), and the blank model group was given an equal volume of physiological saline and fed normally. On the 5th day, a 5 g/L Evans blue physiological saline solution was injected into the tail vein at […], followed by intraperitoneal injection ([…]) of a HAc solution (6 mL/L) to induce inflammation. After 20 min, the mice were sacrificed by cervical dislocation. 5 mL of physiological saline was intraperitoneally injected, the abdomen was gently rubbed for 2 min, the abdominal cavity was cut, a peritoneal washing solution was collected and centrifuged at 4000 rpm for 10 min, 1 mL of supernatant was taken, and 3 mL of physiological saline was added to obtain 4 mL of dilution. The absorbance OD value of the dilution was measured by an ultraviolet spectrophotometer at a wavelength of 590 nm, and the amount of pigment exudation was expressed by the OD590 nm value, and the peritoneal capillary permeability in mice was examined.

[3] = system: toe swelling in rat induced by carrageenan; assay: Acute inflammation of toe swelling in rat induced by carrageenan; type: in vivo; settings: 10 mg/kg (positive control), rat foot
Procedure: 80 SD rats were randomly divided into 8 groups with 10 mice for each group. […] The drug was administered once by injection, and the model group was given an equal volume of physiological saline and fed normally. On the third day, 0.1 mL of 1% carrageenan was injected subcutaneously into the right hind toes of the rats to induce inflammation. The foot volume was measured at 1 h, 3 h, 5 h, and 7 h after inflammation. The swelling degree of the foot was calculated according to the following formula: the swelling degree of the foot (mL)=the volume of the foot after inflammation—the volume before inflammation. The number of milliliters of spilled liquid was recorded (method: the protruding point of the right joint was circled with a ballpoint pen and used as a measurement mark, and the right hind feet of the rat were sequentially placed in the volume measuring device, so that the hind limbs were exposed outside the cylinder, and the depth of the immersion was limited to the overlap of the circle and the liquid level. After the foot entered the liquid, the liquid level was raised, and the volume of the spilled liquid was the volume of the right hind foot of the rat, and the normal volume of the right hind foot of each rat is sequentially determined).

[4] = system: angiogenesis of chicken embryo chorioallantoic membrane; assay: Chicken embryo chorioallantoic membrane (CAM) angiogenesis assay; type: in vivo; settings: 10 μg (positive control), CAM, 72 hours
Excerpt: In this study, CAM assay was used to investigate the activity of fusion protein I, protein II, protein III, protein IV, and protein V to inhibit angiogenesis in vivo. The study has shown that the biosynthesis rate of collagen reached the maximum on the 8th to 11th day of chicken embryo development, which was the most vigorous stage of angiogenesis, and the body's immune system had not yet been fully established at that time, and thus the chicken embryos developed to the 8th day was selected to be administered. […] The following steps were used.
(1) The White Leghorn chicken embryos on day 6 were cultured in a 37° C. incubator at 60%-70% humidity for two days.
(2) A 1.0 cm×1.0 cm window was drilled above the chicken embryo air sac, and the inner membrane was torn off with forceps to expose the chorioallantoic membrane. Lens paper having a diameter of 5 mm was used as a loading carrier, and was placed on the chorioallantoic membrane of the chicken embryo air sac. Filter paper with PBS was used as a blank group, and the administration group was added with different doses of fusion protein.
(3) The chicken embryo air sac was sealed with a sterile transparent tape, and after culturing at 37° C. for 72 hours, the chicken embryo air sac was opened, and a fixative (formaldehyde:acetone=1:1) was added for fixation for 15 minutes. The chorioallantoic membrane to which the lens paper was adhered was taken out, the distribution of the new blood vessels was observed, and the new blood vessels were counted and photographed. Five replicates were set for each dose and the results were statistically analyzed.

Row | Compound | A570 nm/A630 nm (mouse spleen lymphocytes) | PI (%) (mouse spleen lymphocytes) | IL-1β [1] | PI (%) [1] | Exudation rate (OD590) [2] | Swelling degree 1 h ([3]; 1 h after carrageenan) | Swelling degree 3 h ([3]; 3 h after carrageenan) | Swelling degree 5 h ([3]; 5 h after carrageenan) | Swelling degree 7 h ([3]; 7 h after carrageenan) | Blood vessel number [4]
1 | C[C@@H]1C[C@H]2[C@@H]3CCC4=CC(=O)C=C[C@]4(C)[C@@]3(F)[C@@H](O)C[C@]2(C)[C@@]1(O)C(=O)CO [Dex, dexamethasone, reference compound] | 0.3401 ± 0.1131 | 41.19% | 310.25 ± 20.32 pg/mL | 63.36% | 0.22 ± 0.03 | 0.21 ± 0.11 mL | 0.23 ± 0.04 mL | 0.25 ± 0.09 mL | 0.27 ± 0.12 mL | –
2 | Avastin: positive control group in HRCEC and CAM assays [reference compound] | – | – | – | – | – | – | – | – | – | 57 ± 16
